Results on ten molecules are retold here after US11384078B2, “5,6-fused-bicyclic compounds and compositions for the treatment of parasitic diseases” (NOVARTIS AG, priority 2017, dated 2022).

Bounds are passed on as bounds.

What is called EC50 is the concentration needed to bring the measured effect to its halfway point.

Assay type in all cases: cell-based
Test [1] has as its system L. donovani HU3 strain in mouse peritoneal macrophages. Nature of the test: Assay for inhibition of parasitemia of Leishmania donovani in mouse macrophages (SYBR Green nuclei count, high-content imaging). Conditions: Leishmania donovani, Peritoneal macrophage, L. donovani in mouse peritoneal macrophages; read-out: L. donovani in Mouse Macrophages EC50. In short, it runs like this: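 Parasite numbers were counted from SYBR Green-stained nuclei imaged by high-content microscopy after paraformaldehyde fixation and Triton permeabilization. Before this, compound was applied for 5 days at 37° C to BALB/c peritoneal macrophages (2×10^4/well) that had been exposed 24 h to 4×10^5 L. donovani HU3 amastigotes harvested from infected mouse spleens.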

Test [2] has as its system Leishmania donovani axenic amastigote. Briefly: In vitro assay for growth inhibition of Leishmania donovani axenic amastigote (Cell TiterGlo luminescence). Conditions: Leishmania donovani, L. donovani axenic amastigotes in vitro; read-out: L. donovani amastigotes EC50. The essentials:
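Compound-treated wells received 9600 axenic amastigotes in RPMI 1640-based medium at pH 5.5 (37 °C, 5% CO2). Growth measured as ATP luminescence (CellTiter-Glo) after 2-day incubation; DMSO and reference compounds served as controls.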

In test [3] the test system is Trypanosoma cruzi amastigotes cultured in 3T3 fibroblast cells. Briefly: Assay for growth inhibition of kinetoplastid parasite Trypanosoma cruzi (beta-galactosidase Tulahuen strain, CPRG readout). Conditions: Trypanosoma cruzi, Fibroblast, T. cruzi amastigotes in 3T3 fibroblast cells; read-out: Buckner infectious T. cruzi EC50. The essentials:
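3T3 fibroblasts (1,000 cells/well) plated overnight, treated with compound in DMSO, then infected with 10,000 Lac-Z-expressing Tulahuen trypomastigotes. After 6 days, 0.6 mM CPRG with 0.6% NP-40 added for 2 h at room temperature; absorbance gives relative intracellular amastigote numbers. Benznidazole and nifurtimox serve as positive controls.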

Test [4] concerns Trypanosoma brucei brucei (Lister 427) strain. Nature of the test: Assay for growth inhibition against Trypanosoma brucei brucei (Cell TiterGlo ATP luminescence). To be noted: Trypanosoma brucei, T. brucei brucei (Lister 427); read-out: T. Brucei (HAT) EC50. The essentials: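 Growth read-out is cellular ATP by CellTiter-Glo luminescence, measured 30 min after reagent addition, following 2-day incubation at 37 °C in CO2. Parasites (10,000/mL, HMI-9 plus 10% FBS and 10% serum plus) faced 10 threefold dilutions in duplicate; IC50 taken as 50% growth inhibition versus untreated.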

For `Cc1nc(C(=O)Nc2ccc(F)c(-n3cc4cc(C(C)C)cnc4n3)c2)oc1C` [Compound 81, N-{4-fluoro-3-[5-(propan-2-yl)-2H-pyrazolo[3,4-b]pyridin-2-yl]phenyl}-4,5-dimethyl-1,3-oxazole-2-carboxamide], the EC50 in test [1] is 3600 nM; in test [2] it was 3160 nM; in test [3], 420 nM; in test [4] it was 360 nM.

Regarding `O=C(Nc1ccnc(-n2cc3cc(-c4ccccn4)cnc3n2)c1)N1CC(F)C1` [Compound 342, 3-fluoro-N-{2-[5-(pyridin-2-yl)-2H-pyrazolo[3,4-b]pyridin-2-yl]pyridin-4-yl}azetidine-1-carboxamide], the concentration for a half-maximal effect (EC50) amounted to 24 nM in test [1], 7 nM in test [2], 17 nM in test [3] and 10 nM in test [4].

Consider `CC(C)Cc1cnc2nn(-c3cc(NC(=O)N4CC(F)(F)C4)ccc3F)cc2c1` [Compound 8, 3,3-difluoro-N-(4-fluoro-3-(5-isobutyl-2H-pyrazolo[3,4-b]pyridin-2-yl)phenyl)azetidine-1-carboxamide], for which the EC50 in test [1] is 3.3 nM; in test [2], 7.7 nM; in test [3], 4.5 nM; in test [4], less than 23 nM.

On to `O=C(Nc1cccc(-n2cc3cc(N4CC5(CC5)C4)cnc3n2)c1)N1CCC1` [Compound 287, N-[3-(5-{5-azaspiro[2.3]hexan-5-yl}-2H-pyrazolo[3,4-b]pyridin-2-yl)phenyl]azetidine-1-carboxamide], for which the EC50 in test [1] came out at 30 nM; in test [2], 21 nM; in test [3] it was 21 nM; in test [4], 10 nM.

As to `Cc1nc(C)c(C(=O)Nc2ccc(F)c(-n3cc4cc(N5CCCC5)cnc4n3)c2)o1` [Compound 157, N-{4-fluoro-3-[5-(pyrrolidin-1-yl)-2H-pyrazolo[3,4-b]pyridin-2-yl]phenyl}-2,4-dimethyl-1,3-oxazole-5-carboxamide], the EC50 is 18 nM in test [1], 25 nM in test [2], 13 nM in test [3] and less than 23 nM in test [4].

Take `CC(C)CCc1cnc2nn(-c3cc(NC(=O)N4CC[C@@H](F)C4)ccc3F)cc2c1` [Compound 52, (3R)-3-fluoro-N-{4-fluoro-3-[5-(3-methylbutyl)-2H-pyrazolo[3,4-b]pyridin-2-yl]phenyl}pyrrolidine-1-carboxamide]: the EC50 in test [1] is 11 nM; in test [2], 19 nM; in test [3] it was 13 nM; in test [4] it was less than 23 nM.

As to `O=C(Nc1ccc(F)c(-n2cc3cc(N4CC5(CC5)C4)cnc3n2)c1)N1CCC1` [Compound 257, N-(3-(5-(5-azaspiro[2.3]hexan-5-yl)-2H-pyrazolo[3,4-b]pyridin-2-yl)-4-fluorophenyl)azetidine-1-carboxamide], the concentration for a half-maximal effect (EC50) in test [1] came out at 7 nM; in test [2] it was 14 nM; in test [3] it was 2 nM; in test [4], 4 nM.

Turning to `O=C(Nc1ccc(F)c(-n2cc3cc(-c4ccccn4)cnc3n2)c1)N1CCCC1` [Compound 336, N-{4-fluoro-3-[5-(pyridin-2-yl)-2H-pyrazolo[3,4-b]pyridin-2-yl]phenyl}pyrrolidine-1-carboxamide], the EC50 in test [1] came to 4 nM; in test [2], 2 nM; in test [3], 1 nM; in test [4], 1 nM.

In the case of `O=C(Nc1ccnc(-n2cc3cc(-c4ccccn4)cnc3n2)c1)N1CC(F)(F)C1` [Compound 281, 3,3-difluoro-N-(2-(5-(pyridin-2-yl)-2H-pyrazolo[3,4-b]pyridin-2-yl)pyridin-4-yl)azetidine-1-carboxamide], the EC50 in test [1] was 26 nM; in test [2], 9 nM; in test [3], 15 nM; in test [4] it was 14 nM.

On to `CCC(C)(C)c1cnc2nn(-c3cc(NC(=O)N4CC[C@@H](F)C4)ccc3F)cc2c1` [Compound 49, (3R)-3-fluoro-N-{4-fluoro-3-[5-(2-methylbutan-2-yl)-2H-pyrazolo[3,4-b]pyridin-2-yl]phenyl}pyrrolidine-1-carboxamide], for which the 50% effective concentration (EC50) in test [1] turned out to be 12000 nM; in test [2], 25000 nM; in test [3], 12000 nM; in test [4], 3400 nM.
